How the values were obtained:
MARV = experiment: microbe, parasite or virus in culture; assay type: cell-based, Marburgvirus (Musoke strain); settings: for IC50: read-out: IC-50 (MARV)
EBOV = experiment: organism not typed; assay type: cell-based, Zaire Ebolavirus (Mayinga strain); settings: for IC50: read-out: IC-50 (EBOV)

SMILES	Curve class (MARV) (MARV)	IC50 (MARV) [µM]	Curve Class (EBOV) (EBOV)	IC50 (EBOV) [µM]
C=C1CC(C)OC(c2ccccc2OCC(O)CN2CCCCC2)C1 (centres unmarked) [MLS000042810]	1.2	25.5	1.7	
O=C(NC1CCCCC1)c1ccc(S(=O)(=O)N2CCCCC2)cc1 [MLS000063146]	1.2	25.4	4	
CCN1CCN(CCCNC(=O)c2cc3cc4ccc(OC)cc4nc3o2)CC1 [MLS000091920]	1.2	5.4	4	
O=C1C2CCCN2C(c2cccs2)N1c1ccc(Cl)cc1 (centres unmarked) [MLS000092187]	1.2	25.2	1.4	
Cc1cc(OCCCCCNCCO)cc(C)c1Cl [MLS000106706]	1.2	25.2	1.5	0.595
CC1(C)CC(NC(=O)N2c3ccccc3Sc3ccccc32)CC(C)(C)N1 [MLS000332573]	1.2	12.8	1.3	6.02
Cc1ccc(NC(=O)CN(C)C(=O)Cn2ncc(Cl)c(Cl)c2=O)cc1 [MLS000336293]		24	4	
O=C(COC(=O)/C=C/c1cccs1)Nc1nc(-c2ccccc2)cs1 [MLS000391391]	1.2	25.3	1.4	
CC(C)(C)c1cc(/C=N/O)cc(C(C)(C)C)c1O [MLS000391984]	1.2	6.12	1.4	
S=C(Nc1ccc(Cl)cc1)NC1CCN(Cc2ccccc2)CC1 [MLS000418057]	1.2	25.6	4	
CCN(CC)CCNC1=NCCn2c1cc1cc(OC)ccc12 [MLS000556387]	1.2	25.5	1.6	2.93
Cc1cc(C(=O)c2ccccc2)c(NC(=O)CCl)s1 [MLS000567464]	1.2	~44.4	1.6	25.2
Cc1ccc(NC(=O)ON=C2CCCC2)cc1 [MLS000569139]	1.2	12.7	1.4	
CCOc1cccc(CNCCO)c1OCc1ccc(Cl)cc1Cl.Cl [MLS000580080]	1.2	25.1	1.3	24.6
COc1ccc(C(C(=O)NC2CCCCC2)N(C(=O)CCl)c2ccc(C)cc2)cc1 (centres unmarked) [MLS000583959]	1.2	12.1	1.3	12.4
C=CCNCCOCCOc1ccc(Cl)cc1C(C)(C)C [MLS000666802]		25.2	1.5	0.616
CCCN1CCN(CCCNC(=O)c2cc3c(=O)[nH]c4ccc(C)cc4c3s2)CC1 [MLS000673118]	1.2	25.1	1.3	25
CCOC(=O)c1c(C)n(CC(O)CN(C)C)c2cc(Br)c(OC)cc12.Cl (centres unmarked) [MLS000684231]	1.2	4.88	1.3	6.48
CCCCN(CCCC)CCNC(=O)CSCc1ccc(C)cc1.O=C(O)C(=O)O [MLS000689481]	1.2	12.8	1.3	12
CCOc1cc(CNCCc2c[nH]c3ccccc23)cc(Cl)c1OC.Cl [MLS000718690]	1.2	25.3		2.77

SMILES	Curve class (MARV) (MARV)	IC50 (MARV) [µM]	Curve Class (EBOV) (EBOV)	IC50 (EBOV) [µM]
Oc1ccc(N2CCN(Cc3ccc(OCCCN4CCCCC4)cc3)CC2)cc1 [MLS000736237]	1.2	14	4	
Oc1ccc(Nc2ccnc3cc(Cl)ccc23)cc1 [MLS000737975]		25.2	4	
Cc1cc(C)c2nc(C)cc(Nc3ccc(C(=O)NCCO)cc3)c2c1 [MLS000768081]	1.2	13.8	4	
CCN(CC)CCCNc1nc(CN2CCOCC2)nc2sc3c(c12)CCC3 [MLS000772389]	1.2	24.8	1.6	3.51
O=C1COc2ccc(C(=O)CCl)cc2N1 [MLS000780111]		~38.8	4	
Fc1ccc(C(c2nnnn2Cc2cccs2)N2CCN(C3CCCCC3)CC2)cc1 (centres unmarked) [MLS000880330]	1.2	25.8	1.6	6.38
COc1ccc(NC(=O)C2C3C=CC4(O3)C2C(=O)N(CCN2CCCCC2)C4C(=O)NC2CCCC(C)C2C)cc1 (centres unmarked) [MLS000936259]	1.2	25.3	1.3	12.5
Cc1c(C(=O)NCCN(C)C)oc2ccc(S(=O)(=O)N3CCCC3)cc12 [MLS000936795]	1.2	25.4	1.4	
Cc1cc(NC(=O)CCN2CCN(C/C=C/c3ccccc3)CC2)ccc1Br.Cl [MLS000999960]		26.4	1.6	3.28
CCN1CCCC1CNCC(O)COc1ccc(C(C)(C)C)cc1C.O=C(O)C(=O)O (centres unmarked) [MLS001018888]	1.2	25.7	1.3	12.2
Cc1cc(Nc2ccc(Cl)cc2)nc(N2CCOCC2)n1 [MLS001029946]	1.2	~43.2	1.6	1.52
COc1ccc2c(c1)c(CCN)c(C)n2Cc1ccccc1.Cl [MLS001030162]		25.3	1.3	6.41
COc1ccccc1C(=O)O/N=C(\N)c1ccccn1 [MLS001045935]	1.2	27.9	1.4	
CN(C)c1cc(NC(=O)CN2CCCC2)c2ccccc2n1.O=C(O)C(=O)O [MLS001047402]	1.2	25.9	1.2	5.26
COc1ccc(C(CNC(=O)c2oc3ccc(OC)cc3c2C)N2CCCC2)cc1 (centres unmarked) [MLS001150589]	1.2	25.9	4	
COc1ccccc1CCN1CCCC(CN(C)CC(C)(C)CO)C1 (centres unmarked) [MLS001162808]	1.2	26.1	1.3	7.25
O=C(CCCN1CCc2[nH]c3ccc(F)cc3c2C1)c1ccc(F)cc1 [MLS001173370]		25.1	1.3	3.06
O=C(C#Cc1ccccc1)c1ccco1 [MLS001174896]		12.2		12.4
CCN(CC)CCNC(=O)c1ccc(NC(=O)c2ccccc2-c2ccc(C(F)(F)F)cc2)cc1 [MLS001175455]	1.2	25.4	1.6	6.42
Cc1cccc(C)c1OCC(O)CNC(C)c1ccccc1.Cl (centres unmarked) [MLS001177927]	1.2	25.8	1.5	6.42
